From patent US20230123140A1, “DOSE TREATMENTS OF TAUOPATHIES” (AC Immune SA, priority 2020, published 2023)
Where two headings read alike, the source gives them in different places.

Assays:
cardiovascular system = experiment: Cardiovascular evaluation in telemetrized mini-pig; assay type: in vivo; details: single oral dose 0, 50, 150 and 450 mg/kg, male Gottingen mini-pigs
Procedure: This study was conducted to evaluate the potential effects on the cardiovascular system of ACI-3024 when given as single dose to telemetrized Gottingen mini-pig.
Doses of 0, 50, 150 and 450 mg/kg were administered by oral gavage to 4 males/group. The dose volume was set at 5 mL/kg. The study was a randomized cross over design which consisted of four phases separated by seven days of wash out. In each phase each animal received as single administration of one selected doses. Through the phases each animal received all the dose levels once. ECG (heart rate, duration of the PR, QRS, QT, QTcF (QT interval corrected by Fridericia) and RR intervals (millisecond; ms), blood pressure (systolic, diastolic, and mean arterial pressure) and body temperature parameters through a transmitter implanted into the animals were continuously recorded starting from 30 minutes before dosing up to 20 hours after dose. Different timepoints during the recording period were sampled (−30 min (before dose) and 1 h, 2 h, 4 h, 6 h, 8 h, 12 h and 20 h (after dose)), per each timepoint 5-minute segment was used for study purposes.

[1] = tested on: Tg4510 transgenic mouse model; experiment: Studies of ACI-3024 in the Tg4510 transgenic mouse model (CSF target level); assay type: in vivo; details: derived from studies in Tg4510 transgenic mouse model
Procedure: The present invention is directed to a compound ACI-3024 for use in the treatment, prevention or alleviation of a disorder or an abnormality associated with Tau protein aggregates or a tauopathy comprising administering said compound at an amount up to or equal to 1500 mg/day to a human subject in need thereof wherein the compound ACI-3024 is constantly present in the human subject CSF at a concentration above or equal to 30 nM level at predose, preferably above or equal to 90 nM level at predose. The predefined predose level of ACI-3024 of 30 nM is derived from studies of ACI-3024 in the Tg4510 transgenic mouse model which reflects the clinical manifestation of tauopathies and determines the minimum concentration of the compound in the CSF necessary to achieve clinical efficacy before another dose of the same compound is given (ie a threshold value below which efficacy would be lost). Preferably, the compound ACI-3024 is present in the human subject CSF at a concentration above or equal to 30 nM, preferably above or equal to 90 nM, during the treatment.

[2] = Pharmacokinetics in SAD and MAD studies (plasma, urine); assay type: in vivo
Procedure: Secondary Objectives: • To assess the PK of ACI-3024 in plasma, urine, and cerebrospinal fluid (CSF). • To compare the plasma and urine PK parameters of ACI-3024 following single oral doses in the fed and fasting states.
In each of Cohorts S1 to S5, 6 subjects (including 3 Japanese subjects in Cohorts S2 through S5) received ACI-3024 and 2 subjects (including 1 Japanese subject in Cohorts S2 through S5) received placebo. All doses were administered in the fasting state in accordance with a randomization schedule on the morning of Day 1, except for subjects in the food-effect cohort (Cohort S4), who were dosed 30 minutes after starting a high-fat breakfast in Treatment Period 2 only. Each subject received only a single dose of ACI-3024 or placebo during the study, except for subjects in the food effect cohort, who received a single dose of ACI-3024 or placebo in the fasting state followed by a single dose of ACI-3024 in the fed state. Thus, subjects in Cohort S4 received either 2 identical doses of ACI-3024 (6 subjects) or 1 dose of placebo and 1 dose of ACI-3024 (2 subjects). Six subjects of Cohort S4 received 750 mg dose of ACI-3024 and 2 subjects received placebo. After a period of wash-up all 8 subjects of Cohort S4 received a fat-breakfast and a 750 mg dose of ACI-3024.
Cohorts MAD-HV1 to MAD-HV3 comprised 10 elderly non-Japanese male or female subjects, 8 were treated with ACI-3024 and 2 were being given placebo. Cohort MAD-HV4 comprised 5 non-elderly Japanese subjects (4 treated with ACI-3024 and 1 given placebo) and 5 […] (4 treated with ACI-3024 and 1 given placebo). Only subjects from MAD HV3 cohort underwent CSF samplings to explore the CSF inflammatory markers, CSF PK, and CSF PD of ACI-3024. For all subjects, dosing was on […], inclusive, and a final single dose administration occurred on […]. Dose in cohort MAD HV1 was 500 mg of ACI-3024 or placebo, QD, fasted. Dose in cohorts MAD HV2 and MAD HV4 was 500 mg of ACI-3024 or placebo, BID (“bis in die” ie., twice a day), fed. Dose in cohort MAD HV3 was 1400 mg of ACI-3024 or placebo, QD (“quaque die” (once a day), fed.

[3] = Toxicokinetics in the 4-week mouse toxicity study; assay type: in vivo; details: for AUC(0-t) / Cmax / Tmax: plasma
Procedure: This study was conducted to evaluate the potential toxicity of ACI-3024 when given daily by oral gavage to CD1 mice for 4 weeks, followed by a 2-week recovery period. Doses of 100, 300 and 1000 mg/kg were administered by p.o. to 10 animals/sex/group daily. The control animals were administered vehicle. The dose volume was 10 mL/kg for all groups.

Gottingen mini-pig = experiment: in vivo; details: minipig
Procedure: (§1) This study was conducted to evaluate the potential toxicity of ACI-3024 in a non-rodent species when given daily to Gottingen mini-pig for 4 weeks, followed by a 2-week recovery period.
(§2) Doses tested, 50, 150 and 450 mg/kg were given by p.o. to 3 animals/sex/group daily. The control animals were administered vehicle. The dose volume was 5 mL/kg for all groups.
(§3) Clinical signs, body weights, food consumption, electrocardiography, ophthalmology and clinical pathology were evaluated. For each sex/group, a complete necropsy was conducted on 3 animals at the end of the dosing period and on 2 (only control and high dose groups) surviving animals at end of the recovery period.

in vivo = experiment: in vivo; parameters: species or system mini-pig; details: both sexes, Gottingen, minipig, po
Procedure: as §1, §2, §3

[4] = statistical assessment, healthy volunteers
[5] = both sexes, mouse, Day 28, 300 mg/kg oral, average M/F CD-1 mice
[6] = mouse, Day 28, 300 mg/kg oral, female CD-1 mice
[7] = mouse, Day 28, 300 mg/kg oral, male CD-1 mice

## Fc1ccc2c3c([nH]c2c1)CCN(c1ccc2oc(N4CCOCC4)nc2c1)C3 [ACI-3024]
Cardiovascular system
  effect on cardiovascular parameters and body temperature: no effect
[1]
  minimum predose CSF level necessary for efficacy (target): 30 nM
[2]; both sexes, human, plasma, oral, fasting state, single or multiple doses, read-out: median time of maximum observed plasma concentration (Tmax)
  Tmax: 1.25 to 2.5 h
[2]; both sexes, human, plasma, oral, following 14 days of multiple dosing, when calculable, read-out: geometric mean t1/2
  half-life: 47.5 to 101 h
[2]; fed vs fasting state
  food effect on rate of absorption: reduced the rate of absorption
  food effect: increase of overall exposure: approximately 3 fold
[2]; healthy volunteers
  excretion in urine: Only a small amount
[2]; human, plasma, oral, humans, read-out: plasma half-life
  half-life: > 24 h
[2]; male, human, plasma, oral, following single dose administration, read-out: geometric mean t1/2
  half-life: 27.7 to 60.5 h
[2]; multiple dosing, QD or BID regimen
  accumulation: evidence of accumulation
[2]; [4]
  dose proportionality of AUC0-tlast and AUC0-∞: dose-proportional increase
  dose proportionality of Cmax: subproportional increase
[3]; 100 to 1000 mg/kg
  dose proportionality of plasma exposure: less than dose proportionally
[3]; [5]
  AUC(0-t): 353 µg·h/mL
  Cmax: 25800 ng/mL
  Tmax: 4 h
[3]; female, CD1, mouse, oral, females, high-dose group (1000 mg/kg), delayed
  Tmax: 24 h
[3]; in general, except 300 mg/kg/day on Day 28
  sex difference in exposure: higher exposure was observed in females than in males
[3]; [6]
  AUC(0-t): 320 µg·h/mL
  Cmax: 23400 ng/mL
  Tmax: 4 h
[3]; [7]
  AUC(0-t): 386 µg·h/mL
  Cmax: 28300 ng/mL
  Tmax: 4 h
[3]; repeated administrations, Day 1 vs. Day 28
  accumulation: slight ACI-3024 accumulation
Gottingen mini-pig
  body weight gain: minimal test item-related reduction
In vivo
  NOAEL at 4 weeks: 450 mg/kg
